Measured values from PubChem BioAssay (NCI).
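Following 48 hours of exposure in 96-well plates, responses at five concentrations were used to interpolate endpoints linearly. Here, GI50 denotes the concentration required for 50% inhibition of growth. TGI: concentration producing complete growth inhibition.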

Tests used:
Experiment in all cases: DTP human tumour cell line panel, 48 h
[1] = test system: 786-0 renal
[2] = test system: A498 renal
[3] = test system: A549 NSCLC
[4] = test system: ACHN renal
[5] = test system: BT-549 breast
[6] = test system: CAKI-1 renal
[7] = test system: CCRF-CEM leukemia
[8] = test system: COLO 205 colon
[9] = test system: DU-145 prostate
[10] = test system: EKVX NSCLC
[11] = test system: HCC-2998 colon
[12] = test system: HCT-116 colon
[13] = test system: HCT-15 colon
[14] = test system: HL-60(TB) leukemia
[15] = test system: HOP-62 NSCLC
[16] = test system: HOP-92 NSCLC
[17] = test system: HS 578T breast
[18] = test system: HT29 colon
[19] = test system: IGROV1 ovarian
[20] = test system: K-562 leukemia
[21] = test system: KM12 colon
[22] = test system: LOX IMVI melanoma
[23] = test system: M14 melanoma
[24] = test system: MALME-3M melanoma
[25] = test system: MCF7 breast
[26] = test system: MDA-MB-231 breast
[27] = test system: MDA-MB-435
[28] = test system: MOLT-4 leukemia
[29] = test system: NCI-H226 lung
[30] = test system: NCI-H23 lung
[31] = test system: NCI-H460 lung
[32] = test system: NCI-H522 lung
[33] = test system: NCI/ADR-RES ovarian
[34] = test system: OVCAR-3 ovarian
[35] = test system: OVCAR-4 ovarian
[36] = test system: OVCAR-8 ovarian
[37] = test system: PC-3 prostate
[38] = test system: RPMI-8226 leukemia
[39] = test system: RXF 393 renal
[40] = test system: SF-268 CNS
[41] = test system: SF-295 CNS
[42] = test system: SF-539 CNS
[43] = test system: SK-MEL-2 melanoma
[44] = test system: SK-MEL-28 melanoma
[45] = test system: SK-MEL-5 melanoma
[46] = test system: SK-OV-3 ovarian
[47] = test system: SN12C renal
[48] = test system: SNB-19 CNS
[49] = test system: SNB-75 CNS
[50] = test system: SR leukemia
[51] = test system: SW-620 colon
[52] = test system: T-47D breast
[53] = test system: TK-10 renal
[54] = test system: U251 CNS
[55] = test system: UACC-257 melanoma
[56] = test system: UACC-62 melanoma
[57] = test system: UO-31 renal

O=C1C=CC2(NN=C(c3ccccc3)N2c2ccccc2)c2cccc(O)c21 (centres undefined)
GI50 [1]: 6.13 µM | TGI [1]: 43 µM | GI50 [2]: 5.52 µM | TGI [2]: 19.6 µM | GI50 [3]: 1.84 µM | TGI [3]: 5 µM | GI50 [4]: 3.11 µM | TGI [4]: 21.5 µM | GI50 [5]: 1.13 µM | TGI [5]: 2.69 µM | GI50 [6]: 5.71 µM | TGI [6]: 50.3 µM | GI50 [7]: 4.83 µM | TGI [7]: > 100 µM | GI50 [8]: 1.89 µM | TGI [8]: 3.83 µM | GI50 [9]: 1.27 µM | TGI [9]: 2.56 µM | GI50 [10]: 1.41 µM | TGI [10]: 14.5 µM | GI50 [11]: 3.83 µM | TGI [11]: 13 µM | GI50 [12]: 1.38 µM | TGI [12]: 5.26 µM | GI50 [13]: 0.472 µM | TGI [13]: 2.37 µM | GI50 [14]: 2.77 µM | TGI [14]: 8.03 µM | GI50 [15]: 0.693 µM | TGI [15]: 2.22 µM | GI50 [16]: 22.8 µM | TGI [16]: 54.2 µM | GI50 [17]: 2.86 µM | TGI [17]: 7.63 µM | GI50 [18]: 2.53 µM | TGI [18]: 6.21 µM | GI50 [19]: 3.19 µM | TGI [19]: 17.1 µM | GI50 [20]: 1.6 µM | TGI [20]: 21 µM | GI50 [21]: 2.65 µM | TGI [21]: 18 µM | GI50 [22]: 0.275 µM | TGI [22]: 1.28 µM | GI50 [23]: 1.3 µM | TGI [23]: 2.6 µM | GI50 [24]: 1.28 µM | TGI [24]: 2.58 µM | GI50 [25]: 1.5 µM | TGI [25]: 3.83 µM | GI50 [26]: 2.37 µM | TGI [26]: 33.9 µM | GI50 [27]: 0.185 µM | TGI [27]: 0.336 µM | GI50 [28]: 6.81 µM | TGI [28]: > 100 µM | GI50 [29]: 1.83 µM | TGI [29]: 4.53 µM | GI50 [30]: 0.46 µM | TGI [30]: 2.18 µM | GI50 [31]: 2.56 µM | TGI [31]: 10.2 µM | GI50 [32]: 1.21 µM | TGI [32]: 3.4 µM | GI50 [33]: 1.62 µM | TGI [33]: 30.9 µM | GI50 [34]: 1.08 µM | TGI [34]: 3.7 µM | GI50 [35]: 0.698 µM | TGI [35]: 3.21 µM | GI50 [36]: 2.4 µM | TGI [36]: > 100 µM | GI50 [37]: 3.19 µM | TGI [37]: > 100 µM | GI50 [38]: 3.52 µM | TGI [38]: > 100 µM | GI50 [39]: 7.36 µM | TGI [39]: 25 µM | GI50 [40]: 1.84 µM | TGI [40]: 14.3 µM | GI50 [41]: 1.34 µM | TGI [41]: 3.18 µM | GI50 [42]: 1.26 µM | TGI [42]: 2.79 µM | GI50 [43]: 4.6 µM | TGI [43]: 21.5 µM | GI50 [44]: 1.99 µM | TGI [44]: 4.38 µM | GI50 [45]: 0.272 µM | TGI [45]: 0.706 µM | GI50 [46]: 11.8 µM | TGI [46]: 98 µM | GI50 [47]: 1.47 µM | TGI [47]: 2.84 µM | GI50 [48]: 1.59 µM | TGI [48]: 10.8 µM | GI50 [49]: 1.82 µM | TGI [49]: 3.44 µM | GI50 [50]: 4.38 µM | TGI [50]: 76.9 µM | GI50 [51]: 1.67 µM | TGI [51]: 3.64 µM | GI50 [52]: 4.88 µM | TGI [52]: 37.7 µM | GI50 [53]: 5.46 µM | TGI [53]: 46 µM | GI50 [54]: 0.587 µM | TGI [54]: 20.2 µM | GI50 [55]: 1.47 µM | TGI [55]: 2.93 µM | GI50 [56]: 1.05 µM | TGI [56]: 2.26 µM | GI50 [57]: 1.46 µM | TGI [57]: 7.67 µM
